{"source": "paper PMC5218480", "about": "(PLoS ONE, 2017)", "system": "MV-4-11 cells", "experiment": "Gene expression microarray analysis (Affymetrix PrimeView) and GSEA", "type": "cell-based, human", "parameters": "RFU PODN (11730768_x_at) / Fold change /veh PODN (11730768_x_at) / RFU LINC00158 (11744669_a_at) / Fold change /veh LINC00158 (11744669_a_at) / RFU DUSP10 (11751237_a_at) / Fold change /veh DUSP10 (11751237_a_at) / RFU ID3 (11757404_x_at) / Fold change /veh ID3 (11757404_x_at) / RFU PLEKHG5 (11737974_s_at) / Fold change /veh PLEKHG5 (11737974_s_at) / RFU LRRC4B (11730491_at) / Fold change /veh LRRC4B (11730491_at) / RFU GIMAP4 (11747438_a_at) / Fold change /veh GIMAP4 (11747438_a_at) / RFU KRT8 (11758183_x_at) / Fold change /veh KRT8 (11758183_x_at) / RFU CNN1 (11734310_a_at) / Fold change /veh CNN1 (11734310_a_at) / RFU VPS37D (11726825_at) / Fold change /veh VPS37D (11726825_at) / RFU C10orf10 (11716522_x_at) / Fold change /veh C10orf10 (11716522_x_at) / RFU KIR2DL2 /// KIR2DL4 /// KIR2DL5A /// KIR2DL5B /// KIR2DS1 /// KIR2DS2 /// KIR2DS3 /// KIR2DS4 /// KIR3DL3 /// KIR3DL3 /// KIR3DS1 (11738374_at) / Fold change /veh KIR2DL2 /// KIR2DL4 /// KIR2DL5A /// KIR2DL5B /// KIR2DS1 /// KIR2DS2 /// KIR2DS3 /// KIR2DS4 /// KIR3DL3 /// KIR3DL3 /// KIR3DS1 (11738374_at) / RFU C1QL1 (11718748_at) / Fold change /veh C1QL1 (11718748_at) / RFU TMPRSS4 (11747572_a_at) / Fold change /veh TMPRSS4 (11747572_a_at) / RFU HAMP (11756126_x_at) / Fold change /veh HAMP (11756126_x_at) / RFU RNFT2 (11725882_a_at) / Fold change /veh RNFT2 (11725882_a_at) / RFU NR4A2 (11747474_a_at) / Fold change /veh NR4A2 (11747474_a_at) / RFU ABCC12 (11746883_a_at) / Fold change /veh ABCC12 (11746883_a_at) / RFU TMEM136 (11760407_x_at) / Fold change /veh TMEM136 (11760407_x_at) / RFU CLDN22 /// WWC2 (11732394_at) / Fold change /veh CLDN22 /// WWC2 (11732394_at) / RFU HLA-DPB1 (11760878_x_at) / Fold change /veh HLA-DPB1 (11760878_x_at) / RFU SPINT1 (11716480_a_at) / Fold change /veh SPINT1 (11716480_a_at) / RFU GAP43 (11754022_s_at) / Fold change /veh GAP43 (11754022_s_at) / RFU A4GNT (11735810_at) / Fold change /veh A4GNT (11735810_at) / RFU PRB3 (11715151_x_at) / Fold change /veh PRB3 (11715151_x_at) / RFU TUBB4B (11761932_at) / Fold change /veh TUBB4B (11761932_at) / RFU CAPN14 (11732068_a_at) / Fold change /veh CAPN14 (11732068_a_at) / RFU TMCC2 (11721928_a_at) / Fold change /veh TMCC2 (11721928_a_at) / RFU IRGQ (11745062_a_at) / Fold change /veh IRGQ (11745062_a_at) / RFU FAM174B (11720279_a_at) / Fold change /veh FAM174B (11720279_a_at) / RFU TMPRSS4 (11748680_a_at) / Fold change /veh TMPRSS4 (11748680_a_at) / RFU FAM212B (11763350_a_at) / Fold change /veh FAM212B (11763350_a_at) / RFU PLEKHG5 (11743358_a_at) / Fold change /veh PLEKHG5 (11743358_a_at) / RFU ZSCAN30 (11745921_a_at) / Fold change /veh ZSCAN30 (11745921_a_at) / RFU CMKLR1 (11741424_a_at) / Fold change /veh CMKLR1 (11741424_a_at) / RFU LOC101060620 /// MAPK8IP1 (11723275_at) / Fold change /veh LOC101060620 /// MAPK8IP1 (11723275_at) / RFU SPTSSB (11747773_x_at) / Fold change /veh SPTSSB (11747773_x_at) / RFU PRSS12 (11739890_at) / Fold change /veh PRSS12 (11739890_at) / RFU BIN1 (11741810_x_at) / Fold change /veh BIN1 (11741810_x_at) / RFU WNT11 (11732464_a_at) / Fold change /veh WNT11 (11732464_a_at) / RFU C10orf10 (11716521_a_at) / Fold change /veh C10orf10 (11716521_a_at) / RFU C5orf56 (11738089_at) / Fold change /veh C5orf56 (11738089_at) / RFU CYB561 (11721691_x_at) / Fold change /veh CYB561 (11721691_x_at) / RFU ANKRD19P (11752326_a_at) / Fold change /veh ANKRD19P (11752326_a_at) / RFU OR2T12 /// OR2T33 /// OR2T8 (11738714_s_at) / Fold change /veh OR2T12 /// OR2T33 /// OR2T8 (11738714_s_at) / RFU VCAN (11748164_a_at) / Fold change /veh VCAN (11748164_a_at) / RFU JSRP1 (11732532_at) / Fold change /veh JSRP1 (11732532_at) / RFU KRTAP10-11 (11738290_x_at) / Fold change /veh KRTAP10-11 (11738290_x_at) / RFU MYO3A (11730013_a_at) / Fold change /veh MYO3A (11730013_a_at) / RFU EBF3 (11725865_a_at) / Fold change /veh EBF3 (11725865_a_at) / RFU CAMK2N1 (11719241_x_at) / Fold change /veh CAMK2N1 (11719241_x_at) / RFU C5orf56 (11738088_a_at) / Fold change /veh C5orf56 (11738088_a_at) / RFU OLFML3 (11715873_a_at) / Fold change /veh OLFML3 (11715873_a_at) / RFU LOC100653217 /// NTM (11731650_a_at) / Fold change /veh LOC100653217 /// NTM (11731650_a_at) / RFU MAPK11 (11762145_a_at) / Fold change /veh MAPK11 (11762145_a_at) / RFU FIZ1 (11724087_x_at) / Fold change /veh FIZ1 (11724087_x_at) / RFU OASL (11726364_x_at) / Fold change /veh OASL (11726364_x_at) / RFU SOX15 (11748057_x_at) / Fold change /veh SOX15 (11748057_x_at) / RFU CD79A (11719716_a_at) / Fold change /veh CD79A (11719716_a_at) / RFU HIST1H1D (11736915_at) / Fold change /veh HIST1H1D (11736915_at) / RFU CASKIN2 (11723855_a_at) / Fold change /veh CASKIN2 (11723855_a_at) / RFU LOC730098 (11760151_x_at) / Fold change /veh LOC730098 (11760151_x_at) / RFU OR4N2 (11742367_at) / Fold change /veh OR4N2 (11742367_at) / RFU PRRT2 (11749266_a_at) / Fold change /veh PRRT2 (11749266_a_at) / RFU SNX32 (11753110_a_at) / Fold change /veh SNX32 (11753110_a_at) / RFU CDHR5 (11726645_a_at) / Fold change /veh CDHR5 (11726645_a_at) / RFU RCAN1 (11760418_a_at) / Fold change /veh RCAN1 (11760418_a_at) / RFU FAM167A (11723789_a_at) / Fold change /veh FAM167A (11723789_a_at) / RFU FAM26E (11764081_at) / Fold change /veh FAM26E (11764081_at) / RFU ISYNA1 (11749810_s_at) / Fold change /veh ISYNA1 (11749810_s_at) / RFU ACY1 (11761880_at) / Fold change /veh ACY1 (11761880_at) / RFU 11764098_at / Fold change /veh 11764098_at / RFU SAMD14 (11745864_x_at) / Fold change /veh SAMD14 (11745864_x_at) / RFU NPB (11741838_a_at) / Fold change /veh NPB (11741838_a_at) / RFU TMPRSS6 (11731388_a_at) / Fold change /veh TMPRSS6 (11731388_a_at) / RFU KRTAP10-2 (11738614_at) / Fold change /veh KRTAP10-2 (11738614_at) / RFU ARHGAP8 /// PRR5-ARHGAP8 (11727945_x_at) / Fold change /veh ARHGAP8 /// PRR5-ARHGAP8 (11727945_x_at) / RFU KRTAP5-7 /// NADSYN1 (11734609_at) / Fold change /veh KRTAP5-7 /// NADSYN1 (11734609_at) / RFU RASL12 (11751679_a_at) / Fold change /veh RASL12 (11751679_a_at) / RFU CDKN2B (11736163_a_at) / Fold change /veh CDKN2B (11736163_a_at) / RFU PRF1 (11729649_at) / Fold change /veh PRF1 (11729649_at) / RFU, ZNF638 /// ZNF638-IT1 / Fold change vs veh, ZNF638 /// ZNF638-IT1 / RFU, PANK3 / Fold change vs veh, PANK3 / RFU, SH3YL1 / Fold change vs veh, SH3YL1 / RFU, ZEB2 / Fold change vs veh, ZEB2 / RFU, NRIP1 / Fold change vs veh, NRIP1 / RFU, PTTG1IP / Fold change vs veh, PTTG1IP / RFU, CAPN2 / Fold change vs veh, CAPN2 / RFU, MED14 / Fold change vs veh, MED14 / RFU, SNORA58 / Fold change vs veh, SNORA58 / RFU, C1orf63 / Fold change vs veh, C1orf63 / RFU, LRRFIP1 / Fold change vs veh, LRRFIP1 / RFU, NDUFAF7 / Fold change vs veh, NDUFAF7 / RFU, SLC12A2 / Fold change vs veh, SLC12A2 / RFU, IBTK / Fold change vs veh, IBTK / RFU, ESF1 / Fold change vs veh, ESF1 / Fold change vs veh, TMEM50B / RFU, TAOK1 / Fold change vs veh, TAOK1 / RFU, ACBD3 / Fold change vs veh, ACBD3 / RFU, TMA16 / Fold change vs veh, TMA16 / RFU, RWDD3 / Fold change vs veh, RWDD3 / RFU, BCAT1 / Fold change vs veh, BCAT1 / RFU, EDEM3 / Fold change vs veh, EDEM3 / RFU, TMEM33 / Fold change vs veh, TMEM33 / RFU, WDR75 / Fold change vs veh, WDR75 / RFU, AHCTF1 / Fold change vs veh, AHCTF1 / RFU, TFRC / Fold change vs veh, TFRC / RFU, ZDHHC17 / Fold change vs veh, ZDHHC17 / RFU, NOM1 / Fold change vs veh, NOM1 / RFU, ARL8B / Fold change vs veh, ARL8B / RFU, ZBTB11 / Fold change vs veh, ZBTB11 / RFU, TAMM41 / Fold change vs veh, TAMM41 / RFU, KIAA1704 /// LOC100996395 / Fold change vs veh, KIAA1704 /// LOC100996395 / RFU, ING1 / Fold change vs veh, ING1 / RFU, TRMT61B / Fold change vs veh, TRMT61B / RFU, FUBP3 / Fold change vs veh, FUBP3 / RFU, TP53 / Fold change vs veh, TP53 / RFU, TNKS2 / Fold change vs veh, TNKS2 / RFU, ZFP14 / Fold change vs veh, ZFP14 / RFU, ACTR2 / Fold change vs veh, ACTR2 / RFU, PPP3R1 / Fold change vs veh, PPP3R1 / RFU, PIK3R1 / Fold change vs veh, PIK3R1 / RFU, HNRNPA1 / Fold change vs veh, HNRNPA1 / RFU, RNF170 / Fold change vs veh, RNF170 / RFU, ZNF28 / Fold change vs veh, ZNF28 / RFU, RNGTT / Fold change vs veh, RNGTT / RFU, OGT / Fold change vs veh, OGT / RFU, BRD1 / Fold change vs veh, BRD1 / RFU, MARS / Fold change vs veh, MARS / RFU, ZNF655 / Fold change vs veh, ZNF655 / RFU, FAHD1 / Fold change vs veh, FAHD1 / RFU, BDP1 / Fold change vs veh, BDP1 / RFU, LRRCC1 / Fold change vs veh, LRRCC1 / RFU, ARID1A / Fold change vs veh, ARID1A / RFU, ZNF146 / Fold change vs veh, ZNF146 / RFU, ZNF330 / Fold change vs veh, ZNF330 / RFU, GPN3 / Fold change vs veh, GPN3 / RFU, C9orf123 / Fold change vs veh, C9orf123 / RFU, N4BP2L2 / Fold change vs veh, N4BP2L2 / RFU, ARFIP1 / Fold change vs veh, ARFIP1 / RFU, FAM179B / Fold change vs veh, FAM179B / RFU, BCL10 / Fold change vs veh, BCL10 / RFU, UHRF1BP1L / Fold change vs veh, UHRF1BP1L / RFU, BET1 / Fold change vs veh, BET1 / RFU, CNOT2 / Fold change vs veh, CNOT2 / RFU, ZNF268 / Fold change vs veh, ZNF268 / Fold change vs veh, ZNF507 / RFU, DGCR2 / Fold change vs veh, DGCR2 / RFU, WDSUB1 / Fold change vs veh, WDSUB1 / Fold change vs veh, HSP90B1 /// MIR3652 / RFU, ADSS / Fold change vs veh, ADSS / RFU, GK / Fold change vs veh, GK / RFU, ZNF148 / Fold change vs veh, ZNF148 / RFU, TAF9 / Fold change vs veh, TAF9 / RFU, SLC1A5 / Fold change vs veh, SLC1A5 / RFU, SLMO2 / Fold change vs veh, SLMO2 / RFU, ABCC4 / Fold change vs veh, ABCC4 / RFU, LOC101060439 /// RAP1B / Fold change vs veh, LOC101060439 /// RAP1B / RFU, RFX7 / Fold change vs veh, RFX7 / RFU, GTPBP10 / Fold change vs veh, GTPBP10 / RFU, CNEP1R1 / Fold change vs veh, CNEP1R1 / RFU, BIVM-ERCC5 /// ERCC5 / Fold change vs veh, BIVM-ERCC5 /// ERCC5 / RFU, ILF3 / Fold change vs veh, ILF3 / RFU 11762660_at / Fold change /veh 11762660_at / RFU VCAN (11757783_s_at) / Fold change /veh VCAN (11757783_s_at) / RFU DDX43 (11728927_at) / Fold change /veh DDX43 (11728927_at) / RFU KRT8 (11758188_x_at) / Fold change /veh KRT8 (11758188_x_at) / RFU NKD1 (11759106_at) / Fold change /veh NKD1 (11759106_at) / RFU SRD5A1 (11742802_a_at) / Fold change /veh SRD5A1 (11742802_a_at) / RFU TPSAB1 /// TPSB2 (11721975_s_at) / Fold change /veh TPSAB1 /// TPSB2 (11721975_s_at) / RFU GSTM3 (11746129_a_at) / Fold change /veh GSTM3 (11746129_a_at) / RFU IL23R (11737362_x_at) / Fold change /veh IL23R (11737362_x_at) / RFU TMEM51 (11727254_a_at) / Fold change /veh TMEM51 (11727254_a_at) / RFU PIWIL2 (11732686_x_at) / Fold change /veh PIWIL2 (11732686_x_at) / RFU ORM1 (11744905_x_at) / Fold change /veh ORM1 (11744905_x_at) / RFU CCDC152 (11743942_at) / Fold change /veh CCDC152 (11743942_at) / RFU ECM1 (11717891_a_at) / Fold change /veh ECM1 (11717891_a_at) / RFU IL23R (11748794_a_at) / Fold change /veh IL23R (11748794_a_at) / RFU TNFAIP8L3 (11732012_x_at) / Fold change /veh TNFAIP8L3 (11732012_x_at) / RFU MBOAT4 (11741988_at) / Fold change /veh MBOAT4 (11741988_at) / RFU 11764193_at / Fold change /veh 11764193_at / RFU TMEM53 (11763286_at) / Fold change /veh TMEM53 (11763286_at) / RFU MAGEB2 (11727129_at) / Fold change /veh MAGEB2 (11727129_at) / RFU TMEM200A (11744735_a_at) / Fold change /veh TMEM200A (11744735_a_at) / RFU CCDC152 (11751479_a_at) / Fold change /veh CCDC152 (11751479_a_at) / RFU FAM211A (11726209_a_at) / Fold change /veh FAM211A (11726209_a_at) / RFU RGS16 (11746705_a_at) / Fold change /veh RGS16 (11746705_a_at) / RFU VCAN (11755009_s_at) / Fold change /veh VCAN (11755009_s_at) / RFU RHOB (11743442_s_at) / Fold change /veh RHOB (11743442_s_at) / RFU RGS16 (11720943_a_at) / Fold change /veh RGS16 (11720943_a_at) / RFU RGS16 (11720944_at) / Fold change /veh RGS16 (11720944_at) / RFU, VPS4B / Fold change vs veh, VPS4B / RFU, CREB1 / Fold change vs veh, CREB1 / RFU, DNAJC13 / Fold change vs veh, DNAJC13 / RFU, GNAQ / Fold change vs veh, GNAQ / RFU, CDK5R1 / Fold change vs veh, CDK5R1 / RFU, ZRANB3 / Fold change vs veh, ZRANB3 / RFU, CUL4A / Fold change vs veh, CUL4A / RFU, CCNY / Fold change vs veh, CCNY / RFU, UFL1 / Fold change vs veh, UFL1 / RFU, COG3 / Fold change vs veh, COG3 / RFU, DIAPH2 / Fold change vs veh, DIAPH2 / RFU, SKA2 / Fold change vs veh, SKA2 / RFU, AFF3 / Fold change vs veh, AFF3 / RFU, LMF1 / Fold change vs veh, LMF1 / RFU, IPO11 / Fold change vs veh, IPO11 / RFU, DFFB / Fold change vs veh, DFFB / RFU, FOXP1 / Fold change vs veh, FOXP1 / RFU, CARD8 / Fold change vs veh, CARD8 / RFU, STRN3 / Fold change vs veh, STRN3 / RFU, ADK / Fold change vs veh, ADK / RFU, RASSF2 / Fold change vs veh, RASSF2 / RFU, WIPF1 / Fold change vs veh, WIPF1 / RFU, LARP1B / Fold change vs veh, LARP1B / RFU, RASA1 / Fold change vs veh, RASA1 / RFU, RB1 / Fold change vs veh, RB1 / RFU, PPFIA1 / Fold change vs veh, PPFIA1 / RFU, MAT2A / Fold change vs veh, MAT2A / RFU, CCT5 / Fold change vs veh, CCT5 / RFU, WDR92 / Fold change vs veh, WDR92 / RFU, CUX1 / Fold change vs veh, CUX1 / RFU, TTC7A / Fold change vs veh, TTC7A / RFU, TMEM135 / Fold change vs veh, TMEM135 / RFU, DEPTOR / Fold change vs veh, DEPTOR / RFU, CPM / Fold change vs veh, CPM / RFU, DNAJB6 / Fold change vs veh, DNAJB6 / RFU, CACNA2D3 / Fold change vs veh, CACNA2D3 / RFU, DTX4 / Fold change vs veh, DTX4 / RFU, TFCP2 / Fold change vs veh, TFCP2 / RFU, GMCL1 /// GMCL1P1 / Fold change vs veh, GMCL1 /// GMCL1P1 / RFU, AEBP2 / Fold change vs veh, AEBP2 / RFU, SNHG1 /// SNORD22 /// SNORD25 /// SNORD26 /// SNORD27 /// SNORD28 /// SNORD29 /// SNORD31 / Fold change vs veh, SNHG1 /// SNORD22 /// SNORD25 /// SNORD26 /// SNORD27 /// SNORD28 /// SNORD29 /// SNORD31 / Fold change (Aza/veh), C12orf56 (ProbeSet 11735607_a_at) / Fold change (ACY-1035/veh), C12orf56 (ProbeSet 11735607_a_at) / Fold change (Aza/veh), FGFR1OP (ProbeSet 11751329_s_at) / Fold change (ACY-1035/veh), FGFR1OP (ProbeSet 11751329_s_at) / Fold change (Aza/veh), VPS36 (ProbeSet 11739960_a_at) / Fold change (ACY-1035/veh), VPS36 (ProbeSet 11739960_a_at) / RFU SYPL1 (11715823_x_at) / Fold change /veh SYPL1 (11715823_x_at) / RFU IGFBP7 (11715501_s_at) / Fold change /veh IGFBP7 (11715501_s_at) / RFU REEP3 (11722064_at) / Fold change /veh REEP3 (11722064_at) / RFU IGLL1 (11728026_x_at) / Fold change /veh IGLL1 (11728026_x_at): dose or concentration left out as unconfirmed", "details": "ProbeSet 11718701_a_at; LIST B", "data": [{"smiles": "Nc1ncn([C@@H]2O[C@H](CO)[C@@H](O)[C@H]2O)c(=O)n1", "note": "[azacitidine]", "values": [{"measurement": "RFU, ARFIP1", "result": 68.44, "unit": "RFU"}]}]}
